Patent US9371345B2, “Metathesis catalysts containing onium groups” (Apeiron Synthesis S.A., priority 2012, dated 2016)

Assay: Solubility of the complex in water and alcohols
Format: physicochemical
Settings: methanol, ethanol, water/alcohol mixture

| Solubility in methanol, ethanol and water/alcohol mixture, in words | SMILES |
| --- | --- |
| excellent solubility | CC(C)c1cccc(C(C)C)c1N1CCN(c2c(C(C)C)cccc2C(C)C)[CH]1[Ru]([Cl])([Cl])=[CH]c1ccccc1OC1CC[N+](C)(C)CC1 [Complex 48] |

Same assay, conditions: neat / pure water

| Solubility in water, in words | SMILES |
| --- | --- |
| Insoluble | CC(C)c1cccc(C(C)C)c1N1CCN(c2c(C(C)C)cccc2C(C)C)[CH]1[Ru]([Cl])([Cl])=[CH]c1ccccc1OC1CC[N+](C)(C)CC1 [Complex 48] |

Same assay, conditions: water

| Water solubility [µg/mL] | SMILES |
| --- | --- |
| 3000 | Cc1cc(C)c(N2CC(C[N+](C)(C)C)N(c3c(C)cc(C)cc3C)[CH]2[Ru]([Cl])([Cl])=[CH]c2cc([N+](=O)[O-])ccc2OC(C)C)c(C)c1 (stereo not drawn) [Complex 50] |
| 35000 | Cc1cc(C)c(N2CC(C[N+](C)(C)C)N(c3c(C)cc(C)cc3C)[CH]2[Ru]([Cl])([Cl])=[CH]c2ccccc2OC2CC[N+](C)(C)CC2)c(C)c1 (stereo not drawn) [Complex 51] |
| 3000 | CC[N+]1(C)CCN(CC2CN(c3c(C)cc(C)cc3C)[CH]([Ru]([Cl])([Cl])=[CH]c3ccccc3OC(C)C)N2c2c(C)cc(C)cc2C)CC1 (stereo not drawn) [Complex 52] |
| 35000 | CC[N+]1(C)CCN(CC2CN(c3c(C)cc(C)cc3C)[CH]([Ru]([Cl])([Cl])=[CH]c3ccccc3OC3CC[N+](C)(C)CC3)N2c2c(C)cc(C)cc2C)CC1 (stereo not drawn) [Complex 53] |
| 2000 | CC(C)Oc1ccccc1[CH]=[Ru]([Cl])([Cl])[CH]1N(c2c(C(C)C)cc(C[N+]3(C)CCOCC3)cc2C(C)C)CCN1c1c(C(C)C)cc(C[N+]2(C)CCOCC2)cc1C(C)C [Complex 54] |
| 65000 | CC(C)c1cc(C[N+]2(C)CCOCC2)cc(C(C)C)c1N1CCN(c2c(C(C)C)cc(C[N+]3(C)CCOCC3)cc2C(C)C)[CH]1[Ru]([Cl])([Cl])=[CH]c1ccccc1OC1CC[N+](C)(C)CC1 [Complex 55] |
| 1000 | Cc1cc(C)c(N2CCN(c3c(C)cc(C)cc3C)[CH]2[Ru]([Cl])([Cl])=[CH]c2cc([N+](C)(C)C)ccc2OC(C)C)c(C)c1 [Complex 56] |
